Literature values, collected in patent publication US7087637B2, “Substituted indoles which are PARP inhibitors” (BASF AG, priority 2000, dated 2006).

Details: S. Cuzzocrea et al., Br. J. Pharmacol. 1997, 121, 1065–1074

For `NC(=O)c1cccc(N)c1` [3-aminobenzamide], the “effects in a model of circulatory shock” value is given as “protective effects”.
